# Source: patent US5710130A, “Antithrombotic agents” (Eli Lilly and Company, priority 1995, dated 1998)
# Structures can show the parent of a compound that is named as a salt.
# Legend:
# Format in all cases: biochemical
# Human Thrombin = Human Thrombin (Homo sapiens, UniProt P00734); test: Inhibition of thrombin amidase activity (Kass), chromogenic substrate; settings: mean Kass over a range of concentrations; substrate N-benzoyl-Phe-Val-Arg-p-nitroanilide
# human plasma [1] = test: Human plasma anticoagulation, thrombin time (TT); settings: concentration required to double thrombin time, linear extrapolation
# Procedure: (§1) Dog plasma and rat plasma is obtained from conscious mixed-breed hounds (either sex, Hazelton-LRE, Kalamazoo, Mich., U.S.A.) or from anesthetized male Sprague-Dawley rats (Harlan Sprague-Dawley, Inc., Indianapolis, Ind., U.S.A.) by venipuncture into 3.8 percent citrate. Fibrinogen is prepared from in-date ACD human blood as the fraction I-2 according to previous procedures and specifications. […] Human fibrinogen is also purchased as 98 percent pure/plasmin free from American Diagnostica, Greenwich, Conn. Coagulation reagents ACTIN, Thromboplastin, and Human plasma are from Baxter Healthcare Corp., Dade Division, Miami, Fla. Bovine thrombin from Parke-Davis ([…], Mich.) is used for coagulation assays in plasma.
# (§2) Coagulation assay procedures are as previously described. […] A CoAScreener coagulation instrument (American LABor, Inc.) is used for all coagulation assay measurements. The prothrombin time (PT) is measured by adding 0.05 mL saline and 0.05 mL Thromboplastin-C reagent to 0.05 mL test plasma. The activated partial thromboplastin time (APTT) is measured by incubation of 0.05 mL test plasma with 0.05 mL Actin reagent for 120 seconds followed by 0.05 mL CaCl2 (0.02M). The thrombin time (TT) is measured by adding 0.05 mL saline and 0.05 mL thrombin (10 NIH units/mL) to 0.05 mL test plasma. The compounds of Formula I are added to human or animal plasma over a wide range of concentrations to determine prolongation effects on the APTT, PT, and TT assays. Linear extrapolations are performed to estimate the concentrations required to double the clotting time for each assay.
# human plasma [2] = test: Human plasma anticoagulation, activated partial thromboplastin time (APTT); settings: concentration required to double APTT, linear extrapolation
# Procedure: as §1, §2
# human plasma [3] = test: Human plasma anticoagulation, prothrombin time (PT); settings: concentration required to double PT, linear extrapolation
# Procedure: as §1, §2
Molecule,Kass Human Thrombin (Human Thrombin),Human Plasma Anticoagulation 2x Clotting time TT (human plasma [1]),Human Plasma Anticoagulation 2x Clotting time APTT (human plasma [2]),Human Plasma Anticoagulation 2x Clotting time PT (human plasma [3])
"Cl.NC(N)=NC/C=C/CNC(=O)[C@@H]1CCCN1C(=O)[C@H](N)Cc1ccccc1 (relative stereo) [Example 8, D-Phe-Pro-NHCH2 -trans-CH=CHCH2 NHC(NH)NH2.HCl]",5.3 × 10^6 (L/mole),130 ng/mL,–,–
"Cl.NC[C@H]1CC[C@H](CNC(=O)[C@@H]2CCCN2C(=O)[C@H](N)Cc2ccccc2)CC1 (relative stereo) [Example 12, D-Phe-Pro-NHCH2 -trans-4-(aminomethyl)cyclohexane.HCl]",0.44 × 10^6 (L/mole),"1,700 ng/mL",–,–
"CCS(=O)(=O)N[C@H](CC1CCCCC1)C(=O)N1CCC[C@H]1C(=O)NCCCCN=C(N)N.Cl [Example 2, EtSO2 -D-Cha-Pro-Agm.HCl]",4.4 × 10^6 (L/mole),170 ng/mL,–,–
"CCOC(=O)N[C@H](Cc1ccccc1)C(=O)N1CCC[C@H]1C(=O)NCCCCN=C(N)N.Cl [Example 3, EtOCO-D-Phe-Pro-Agm.HCl]",2.1 × 10^6 (L/mole),590 ng/mL,–,–
"Cl.NCc1cccc(CNC(=O)[C@@H]2CCCN2C(=O)[C@H](N)Cc2ccccc2)c1 [Example 11, D-Phe-Pro-m-NHCH2 C6 H4 CH2 NH2.HCl]",0.064 × 10^6 (L/mole),"8,800 ng/mL",–,–
"Cl.Nc1ccc(CCNC(=O)[C@@H]2CCCN2C(=O)[C@H](N)Cc2ccccc2)cc1 [Example 14, D-Phe-Pro-p-NHCH2 CH2 C6 H4 NH2.HCl]",0.021 × 10^6 (L/mole),"21,000 ng/mL",–,–
"Cl.N=C(N)c1ccc(CCCNC(=O)C2CCCN2C(=O)C2NCCC3CCCCC32)cc1 (stereo not drawn) [Example 32, 1-Piq-Pro-p-NHCH2 CH2 CH2 -C6 H4 C(=NH)NH2.2HCl]",0.13 × 10^6 (L/mole),"3,100 ng/mL",–,–
"CCS(=O)(=O)N[C@H](Cc1ccccc1)C(=O)N1CCC[C@H]1C(=O)NCc1cccc(NC(=N)N)c1 [Example 36, EtSO2 -D-Phe-Pro-m-NHCH2 C6 H4 NHC(NH)NH2.HCl]",–,"7,700 ng/mL","> 91,000 ng/mL","> 91,000 ng/mL"
"N=C(N)c1ccc(CNC(=O)[C@@H]2CCCN2C(=O)[C@@H](CC2CCCCC2)NCC(=O)O)cc1 [Example 48, N-(carboxymethyl)-D-cyclohexylalanyl-N-[[4-(aminoiminomethyl)phenyl]methyl]-L-prolinamide]",–,2 ng/mL,33 ng/mL,59 ng/mL
"N=C(N)c1ccc(CNC(=O)[C@@H]2CCCN2C(=O)[C@H](N)CC2CCCCC2)cc1 [Example 51, D-cyclohexylalanyl-N-[[4-(aminoiminomethyl)phenyl]methyl]-L-prolinamide di-hydrochloride]",–,2 ng/mL,48 ng/mL,110 ng/mL
"N=C(N)c1ccc(CNC(=O)[C@@H]2CCCN2C(=O)[C@@H](CC2CCCCC2)NCCC(=O)O)cc1 [Example 52, N-(2-carboxyethyl)-D-cyclohexylalanyl-N-[[4-(aminoiminomethyl)phenyl]methyl]-L-prolinamide hydrochloride]",–,6 ng/mL,80 ng/mL,170 ng/mL
"N=C(N)N1CCC(CNC(=O)[C@@H]2CCCN2C(=O)[C@@H](CC2CCCCC2)NCC(=O)O)CC1 [Example 56, N-(carboxymethyl)-D-cyclohexylalanyl-N-[[1-(aminoiminomethyl)-hexahydropyridin-4-yl-]methyl]-L-prodimamide hydrochloride]",–,5 ng/mL,160 ng/mL,200 ng/mL
"Cl.O=C(O)CN[C@H](CC1CCCCC1)C(=O)N1CCC[C@H]1C(=O)NCC1=CCNCC1 [Example 58, HO2 CCH2 -D-Cha-Pro-4-NHCH2 -3,4-dehydro-piperidine.HCl]",0.60 × 10^6 (L/mole),710 ng/mL,–,–
"Cl.O=C(O)CN[C@H](CC1CCCCC1)C(=O)N1CCC[C@H]1C(=O)NCCCC1=CCNCC1 [Example 60, HO2 CCH2 -D-Cha-Pro-4-NHCH2 CH2 CH2 -3,4-dehydro-piperidine.HCl]",0.24 × 10^6 (L/mole),"3,200 ng/mL",–,–
"N=C(N)N1CC=C(CNC(=O)[C@@H]2CCCN2C(=O)[C@@H](CC2CCCCC2)NCC(=O)O)CC1 [Example 70, N-(carboxymethyl)-D-cyclohexylalanyl-N-[[1-(aminoiminomethyl)-1,2,3,6-tetrahydropyridin-4-yl]methyl]-L-prolinamide hydrochloride]",–,2 ng/mL,160 ng/mL,180 ng/mL
"Cl.Nc1ccc(CCNC(=O)[C@@H]2CCCN2C(=O)[C@@H](CC2CCCCC2)NCC(=O)O)cn1 [Example 75, HO2 CCH2 -D-Cha-Pro-5-NHCH2 CH2 -2-aminopyridine.HCl]",0.45 × 10^6 (L/mole),–,–,–
"NCC1CCC(CNC(=O)[C@@H]2CCCN2C(=O)[C@@H](CC2CCCCC2)NCC(=O)O)CC1 (stereo partly drawn) [Example 79, HO2 CCH2 -D-Cha-Pro-4-NHCH2 C6 H10 CH2 NH2.HCl]",–,140 ng/mL,"1,700 ng/mL","2,400 ng/mL"
"CCS(=O)(=O)N[C@H](CC1CCCCC1)C(=O)N1CCC[C@H]1C(=O)NCc1ccc(CN)cc1 [Example 81, EtSO2 -D-Cha-Pro-4-NHCH2 C6 H4 CH2 NH2.HCl]",–,110 ng/mL,"1,500 ng/mL","2,700 ng/mL"
"N=C(N)c1ccc(CNC(=O)[C@@H]2CCCN2C(=O)[C@@H](CCC2CCCCC2)NCC(=O)O)cc1 [Example 88, hydrochloride]",–,4 ng/mL,100 ng/mL,200 ng/mL
"CCC(CC)C(=O)N[C@@H](CCS(C)(=O)=O)C(=O)N1CCC[C@H]1C(=O)NCc1ccc(C(=N)N)cc1 [Example 91, (C2 H5)2 CHCO-Met(O2)-Pro-p-NHCH2 C6 H4 C(NH)NH2.HCl]",–,63 ng/mL,"3,000 ng/mL","3,500 ng/mL"
"CS(=O)(=O)CC(=O)N[C@H](CC1CCCCC1)C(=O)N1CCC[C@H]1C(=O)NCc1ccc(C(=N)N)cc1 [Example 92, (N-methylsulfonylacetyl)-L-cyclohexylalanyl-N-[[4-(aminoiminomethyl)phenyl]methyl]-L-prolinamide hydrochloride]",–,8.9 ng/mL,210 ng/mL,340 ng/mL
(S-cis)-N-[[4-(amino iminomethyl)phenyl]methyl]-1-[N-(ethylsulfonyl)-D-phenylglycyl]-1H-indole- 2-carboxamide hydrochloride [Example 44],–,4 ng/mL,100 ng/mL,170 ng/mL
